Laboratory results taken from patent publication US4169950A, “Amino-hydroxy-alkyl sulfonic acid zwitterions” (priority 1977, dated 1979).

Columns and labels:
[1] = physchem
Excerpt: (§2) In this application, pKa is used to represent the pH of the midpoint of the buffering range of the particular composition.

[2] = Solubility of double zwitterion on acidification; assay type: physicochemical; conditions: aqueous reaction solution acidified to pH 1.5 with HCl
[3] = pKa (pH of midpoint of buffering range) of the product at 20° C.
Excerpt: as §2

[4] = tested on: NIL B cells; assay: Effect of buffers on growth of NIL B cells; assay type: cell-based, hamster; conditions: for Minimum Cell Population: Control at 16 hrs, HEPES at 24 hrs, Ex 3 at 24 hrs
Excerpt: (§1) The control was not so modified. […] The medium was changed every other day.

[5] = tested on: SV-NIL cells; assay: Effect of buffers on growth of SV-NIL cells; assay type: cell-based, hamster; conditions: for Minimum Cell Population: Control at 16 hrs, HEPES at 24 hrs, Ex 3 at 26 hrs
Excerpt: as §1

[6] = tested on: BALB/C 3T3; assay: Effect of buffers on growth of 3T3 cells; assay type: cell-based, mouse; conditions: for Minimum Cell Population: Control at 70 hrs, HEPES at 50 hrs, Ex 3 at 22 hrs
Excerpt: as §1

[7] = tested on: NIL B, SV-NIL and BALB/C 3T3 cells; assay: Effectiveness as cell and tissue culture buffers, overall comparison on the cell lines tested; conditions: for effectiveness as buffer in promotion of cell growth, compared with HEPES / effectiveness as buffer in promotion of cell growth, compared with NaHCO3:CO2 system (control): selected media, cells tested
Experimental: The cell lines used in the tests were NIL B, a hamster fibroblast line; SV-NIL, an SV40-virus transformed line derived from NIL B; and BALB/C 3T3, a mouse embryo tissue. The cells were seeded into T-flasks (screw-capped polystyrene flasks) with a 25 cm^2 area. On the control flask (CO2 atmosphere), the cap was kept loose to allow gas circulation while the caps on the experimental culture flasks were screwed on tightly. The medium used in these tests was Eagle's MEM 4X (see pages 108-112 of Paul, Cell and Tissue Culture, 5th Edition, 1975), in an Earle's salt solution (page 95 of same text) modified to contain 2.2 g/l of bicarbonate for the experimental buffers. The control was not so modified. The control flask was incubated at 37° C. in an atmosphere of 5% CO2 in air whereas the other flasks were incubated at 37° C. in an air atmosphere. The medium was changed every other day.
At appointed times, triplicate flasks were harvested using trypsin, and the approximate cell population was determined using a Coulter electronic particle counter.

| pKa [3] | Structure (SMILES) | Time of minimum cell population [4] | Number of Cells per cm^2 ([4]; 0 hrs) | Number of Cells per cm^2 ([4]; 90-92 hrs) | Number of Cells per cm^2 ([4]; 12 hrs) | Number of Cells per cm^2 ([4]; 24 hrs) | Number of Cells per cm^2 ([4]; 36 hrs) | Number of Cells per cm^2 ([4]; 48 hrs) | Number of Cells per cm^2 ([4]; 60 hrs) | Number of Cells per cm^2 ([4]; 72 hrs) | Number of Cells per cm^2 ([4]; 84 hrs) | Minimum Cell Population [4] | Time of minimum cell population [5] | Number of Cells per cm^2 ([5]; 0 hrs) | Number of Cells per cm^2 ([5]; 12 hrs) | Number of Cells per cm^2 ([5]; 24 hrs) | Number of Cells per cm^2 ([5]; 36 hrs) | Number of Cells per cm^2 ([5]; 48 hrs) | Number of Cells per cm^2 ([5]; 60 hrs) | Number of Cells per cm^2 ([5]; 72 hrs) | other results |
| --- | --- | --- | --- | --- | --- | --- | --- | --- | --- | --- | --- | --- | --- | --- | --- | --- | --- | --- | --- | --- | --- |
|  | O=S(=O)(O)CC(O)CNC(CO)(CO)CO (stereo not drawn) [Example 2, 3-[N-(tris-hydroxymethyl)methylamino]-2-hydroxypropane sulfonic acid] |  |  |  |  |  |  |  |  |  |  |  |  |  |  |  |  |  |  |  | pKa [1]: 7.7 |
| 7.85 | O=S(=O)(O)CC(O)CN1CCN(CC(O)CS(=O)(=O)O)CC1 (stereo not drawn) [Example 4, Piperazine-N,N'-2-hydroxypropyl sulfonic acid (dihydrate)] |  |  |  |  |  |  |  |  |  |  |  |  |  |  |  |  |  |  |  | solubility [2]: very insoluble |
|  | O=S(=O)(O)CCN1CCN(CCO)CC1 [HEPES, 4-(2-hydroxyethyl)-1-piperazine-ethanesulfonic acids, reference compound] | 24 h | 1000 cells per cm^2 | 6700 cells per cm^2 | 680 cells per cm^2 | 460 cells per cm^2 | 700 cells per cm^2 | 1010 cells per cm^2 | 1160 cells per cm^2 | 3000 cells per cm^2 | 4800 cells per cm^2 | about 460 cells per cm^2 | 24 h | 1000 cells per cm^2 | 440 cells per cm^2 | 200 cells per cm^2 | 230 cells per cm^2 | 260 cells per cm^2 | 380 cells per cm^2 | 580 cells per cm^2 | Number of Cells per cm^2 ([5]; 84 hrs): 940 cells per cm^2; Number of Cells per cm^2 ([5]; 90 hrs): 1040 cells per cm^2; Minimum Cell Population [5]: about 200 cells per cm^2; Time of minimum cell population [6]: 50 h; Number of Cells per cm^2 ([6]; 0 hrs): 1000 cells per cm^2; Number of Cells per cm^2 ([6]; 12 hrs): 640 cells per cm^2; Number of Cells per cm^2 ([6]; 24 hrs): 400 cells per cm^2; Number of Cells per cm^2 ([6]; 36 hrs): 300 cells per cm^2; Number of Cells per cm^2 ([6]; 48 hrs): 230 cells per cm^2; Number of Cells per cm^2 ([6]; 60 hrs): 280 cells per cm^2; Number of Cells per cm^2 ([6]; 72 hrs): 380 cells per cm^2; Number of Cells per cm^2 ([6]; 84 hrs): 760 cells per cm^2; Number of Cells per cm^2 ([6]; 88 hrs): 1010 cells per cm^2; Minimum Cell Population [6]: about 220 cells per cm^2 |
|  | O=S(=O)(O)CC(O)CN1CCN(CCO)CC1 (stereo not drawn) [Example 3, N-hydroxyethyl piperazine-N'-2 hydroxypropyl sulfonic acid] | 24 h | 1000 cells per cm^2 | 9400 cells per cm^2 | 740 cells per cm^2 | 550 cells per cm^2 | 900 cells per cm^2 | 1100 cells per cm^2 | 2600 cells per cm^2 | 4300 cells per cm^2 | 6600 cells per cm^2 | about 550 cells per cm^2 | 26 h | 1000 cells per cm^2 | 470 cells per cm^2 | 220 cells per cm^2 | 290 cells per cm^2 | 440 cells per cm^2 | 680 cells per cm^2 | 1000 cells per cm^2 | Number of Cells per cm^2 ([5]; 84 hrs): 1120 cells per cm^2; Number of Cells per cm^2 ([5]; 90 hrs): 1200 cells per cm^2; Minimum Cell Population [5]: about 200 cells per cm^2; Time of minimum cell population [6]: 22 h; Number of Cells per cm^2 ([6]; 0 hrs): 1000 cells per cm^2; Number of Cells per cm^2 ([6]; 12 hrs): 520 cells per cm^2; Number of Cells per cm^2 ([6]; 24 hrs): 280 cells per cm^2; Number of Cells per cm^2 ([6]; 36 hrs): 310 cells per cm^2; Number of Cells per cm^2 ([6]; 48 hrs): 330 cells per cm^2; Number of Cells per cm^2 ([6]; 60 hrs): 360 cells per cm^2; Number of Cells per cm^2 ([6]; 72 hrs): 450 cells per cm^2; Number of Cells per cm^2 ([6]; 84 hrs): 805 cells per cm^2; Number of Cells per cm^2 ([6]; 88 hrs): 1015 cells per cm^2; Minimum Cell Population [6]: about 280 cells per cm^2; effectiveness as buffer in promotion of cell growth, compared with HEPES [7]: as good as, if not better than, the control and the known buffer HEPES; effectiveness as buffer in promotion of cell growth, compared with NaHCO3:CO2 system (control) [7]: as good as, if not better than, the control; cell growth utilizing the product as a buffer ([7]; three cell types, average values): general improvement in cell growth |
| 7.6 | O=S(=O)(O)CC(O)CN(CCO)CCO (stereo not drawn) [Example 1, 3-[N-(bis-hydroxyethyl)-amino]-2-hydroxypropyl sulfonic acid] |  |  |  |  |  |  |  |  |  |  |  |  |  |  |  |  |  |  |  |  |
|  | O=S(=O)(O)CC(O)CN1CCOCC1 (stereo not drawn) [Example 6, 3-(N-morpholino)-2-hydroxypropyl sulfonic acid] |  |  |  |  |  |  |  |  |  |  |  |  |  |  |  |  |  |  |  | effectiveness as buffer in promotion of cell growth, compared with HEPES [7]: about as good as HEPES; effectiveness as buffer in promotion of cell growth, compared with NaHCO3:CO2 system (control) [7]: not as good as the NaHCO3 :CO2 system |
